The values that follow come from patent publication US6395467B1 (priority 1998, dated 2002).

Some results are limits rather than exact numbers.

The nature of data set [1]: Glass-forming tendency: concentration needed to vitrify (Cv), Q and qv*. It counts as physicochemical. As to conditions: for Moles of water/mole of CPA (10/Q): pure CPA at Cv; for qv* (Moles of water/mole of polar groups at Cv): pure CPA, Table 1. An excerpt: The qv* method for identifying useful cryoprotectant solutions based on this concentration scale is: to select at least one cryoprotectant whose qv* is below 2.0, include it in a mixture with other cryoprotectants, determine the Cv of the resulting mixture in the normal way (see, for example, Fahy et al, Cryobiology 21: 407-426, 1984), calculate q* at Cv (qv*) (note: the number of moles of water can be readily determined from the weight of a given volume of solution minus the number of grams of all solutes, i.e., from the number of grams of water per unit volume or per unit weight), compare the resulting qv* value to the qv* values of alternative cryoprotectant solutions, and selecting lower qv* value solutions in general preference to higher qv* solutions. qv* values can be estimated adequately from published Q values by estimating that the densities of all solution components as pure substances are unchanged by being in solution with other substances (the validity of a similar approach in deriving Q from % w/v concentrations is discussed in Fahy, in: Low Temperature Biotechnology: Emerging Applications and Engineering Contributions, J.J. McGrath and K. R. Diller, eds, ASME, 1988, pp. 113146.)
“Cv” is the concentration needed to vitrify 5-10 ml of solution at a cooling rate of about 10° C./min.
“qv*=[(#moles of water)/(mole]/[(# polar groups)/(mole cryoprotectant)] or
qv*=(#moles of water per unit volume or per unit mass of solution)/(# moles of polar groups on penetrating cryoprotectants per unit volume or unit mass of solution) at Cv”.

For data set [2] the following is noted: cited from earlier work; for Q (moles of CPA per 10 moles of water): pure CPA at Cv.
A further data set concerns rabbit kidney slices. Description: Freezing of rabbit kidney slices to −130° C., K/Na ratio after freezing and thawing. It counts as cell-based. As to conditions: 30% w/v cryoprotectant, frozen to −130° C. Here is the method:
A recent freezing experiment compared freezing of rabbit kidney slices to −130° C. in the presence of either 30% w/v DMSO or 30% w/v Veg solutes. The K/Na ratio after freezing and thawing in DMSO was 2.46+/−0.30, whereas the K/Na ratio after freezing and thawing in 30% w/v Veg solutes was 3.10+/−0.07 (p<0.05).

For a further data set, the system named is rat hepatocytes. Description: Rat hepatocytes in suspension, trypan blue dye exclusion after cryoprotectant exposure or freezing to −140° C. It counts as cell-based. As to conditions: 10% v/v. As for the experimental part:
A recent freezing experiment compared freezing of rat hepatocytes in suspension to −140° C. in the presence of either 10% v/v DMSO or 10% v/v Veg solutes. Relative to the initial viability, 98% of the Veg-treated, non-frozen hepatocytes were able to exclude trypan blue dye, whereas only 70% of the DMSO-treated, non-frozen hepatocytes retained their dye exclusion capability after addition and removal of DMSO alone. After freezing and thawing, 65% of the initial number of freshly isolated hepatocytes remained capable of excluding trypan blue dye, whereas only 60% of frozen-thawed hepatocytes retained this ability when frozen with DMSO.

Data set [3] deals with rabbit renal cortical slices. Description: Toxicity of cryoprotectant solutions to rabbit renal cortical slices (K/Na ratio after exposure, washout and 90 min at 25° C.). It counts as cell-based. An excerpt: FIGS. 1 and 2 display a reanalysis (performed in early July of 1998) of public information (Fahy, Levy, and Ali, Cryobiology 24: 196213, 1987) on the toxicity of several vitrification solutions of known composition. These vitrification solutions will vitrify at 1,000 atmospheres and contain either 6% polyvinyl pyrrolidone of relative molecular mass 40 kDa [PVP K30] or 6% polyethylene glycol [PEG 8000]. The data set is advantageous because all solutions analyzed are vitrifiable, the data set has low standard errors, and toxicity was convincingly dissociated from osmotic factors (see Fahy, Levy, and Ali, 1987, for discussion). In this example, viability was defined by the ratio of primarily intracellular potassium to intracellular sodium (K/Na ratio) after cryoprotectant washout and active metabolism for 90 min at the optimum temperature of 25° C. The test system was rabbit renal cortical slices.
[…] Each step is 20 min except for 1X step, which is 40 min. All steps done at 0° C.

Another data set concerns Human sperm. The data set is described as follows: Human sperm freezing and thawing, motility. It counts as cell-based. As to conditions: 2 M, cryoprotectant not removed. Here is the method:
Human sperm was exposed to 2 M Veg solutes or 2 M glycerol near 0° C. using gradual addition methods, then frozen, thawed, and videotaped without removing the cryoprotectant.

As for `CC(O)CO` (centres unmarked) [1,2-propanediol], the “qv*” value in data set [1] (pure agent, b117) is on record as “about 2.6”.

Take `O=C(CO)CO` [1,3-dihydroxyacetone]: in data set [1], the “Moles of water/mole of CPA (10/Q)” value turned out to be 5 and the “qv* (Moles of water/mole of polar groups at Cv)” value is on record as 1.7.

In the case of `OCCCO` [1,3-propanediol], in data set [1], the “Moles of water/mole of CPA (10/Q)” value amounted to 3.2 and the “qv* (Moles of water/mole of polar groups at Cv)” value is recorded as 1.6. Further, in data set [2], the “Q (moles of CPA per 10 moles of water)” value is listed as 3.1 moles of CPA per 10 moles of water.

With `CC(N)=O` [Acetamide], in data set [1], the “Moles of water/mole of CPA (10/Q)” value was 2.4 and the “qv* (Moles of water/mole of polar groups at Cv)” value stood at 1.2. For the same molecule, in data set [2], the “Q (moles of CPA per 10 moles of water)” value is on record as 4.1 moles of CPA per 10 moles of water.

With `CC(=O)CO` [Acetol, hydroxyacetone], in data set [1], the “Moles of water/mole of CPA (10/Q)” value is recorded as 2.8 and the “qv* (Moles of water/mole of polar groups at Cv)” value came to 1.4. For the same molecule, in data set [2], the “Q (moles of CPA per 10 moles of water)” value was 3.6 moles of CPA per 10 moles of water.

In the case of `C[S+](C)[O-]` [DMSO, dimethyl sulfoxide], the “K/Na ratio after freezing and thawing” value in the data set with rabbit kidney slices is 2.46+/−0.30. For the same molecule, the “hepatocytes capable of excluding trypan blue dye, of the initial number of freshly isolated hepatocytes” value in the data set with rat hepatocytes (after freezing to −140° C. and thawing) turned out to be 60%. Moreover, the “hepatocytes able to exclude trypan blue dye, relative to the initial viability” value with rat hepatocytes (non-frozen, after addition and removal) worked out at 70%.

Turning to `OCCO` [Ethylene glycol], the “recovery (viability, FIG. 3)” value in data set [3] (at Cv, EuroCollins vehicle) is on record as “less than 50%”. The “concentrations not overtly harmful” value in data set [3] (in D(1)F-EG mixtures) was ≤ 30 % w/v. In data set [1], the “Moles of water/mole of CPA (10/Q)” value turned out to be 3.0 and the “qv* (Moles of water/mole of polar groups at Cv)” value was determined as 1.4. Moreover, the “Q (moles of CPA per 10 moles of water)” value in data set [2] is reported as 3.3 moles of CPA per 10 moles of water.

As to `CNC=O` [N-Methyl-Formamide], in data set [1], the “Moles of water/mole of CPA (10/Q)” value amounted to 2.6 and the “qv* (Moles of water/mole of polar groups at Cv)” value came out at 1.3. Also, in data set [2], the “Q (moles of CPA per 10 moles of water)” value is listed as 3.9 moles of CPA per 10 moles of water.

For `NC=O` [formamide], the “maximum concentration associated with minimal injury” value in data set [3] (in D(1)F-EG mixtures, 57-58% w/v total) was “about 14%”. In data set [2] (agent alone), the “vitrification of aqueous solutions” value is given as “do not vitrify”.

Turning to `OCC(O)CO` [glycerol], the “sperm motility after freezing and thawing” value with Human sperm was “largely quiescent upon thawing”.
